Experiments:
SK-N-SH = assay: Cytotoxicity against Homo sapiens (human) SK-N-SH cells assessed as growth inhibition after 48 hr by MTT assay; type: functional, cell-based
A549 = assay: Cytotoxicity against Homo sapiens (human) A549 cells assessed as growth inhibition after 48 hr by MTT assay; type: functional, cell-based; settings: A549, 48 h

Compound | IC50 (SK-N-SH) [µM] | IC50 (A549) [µM]
O=C(O)Cc1ccc(/C=C/CN2Cc3cc4ccccc4nc3C2=O)cc1 | 56.6 | –
O=C(Cc1ccc(/C=C/CN2Cc3cc4ccccc4nc3C2=O)cc1)N1CCN(c2ccccc2)CC1 | 51.9 | 53.5
COc1ccc(N2CCN(C(=O)Cc3ccc(/C=C/CN4Cc5cc6ccccc6nc5C4=O)cc3)CC2)cc1 | 56.3 | –
O=C(Cc1ccc(/C=C/CN2Cc3cc4ccccc4nc3C2=O)cc1)N1CCN(c2ccc([N+](=O)[O-])cc2)CC1 | 56.2 | 43.8
O=C(Cc1ccc(/C=C/CN2Cc3cc4ccccc4nc3C2=O)cc1)N1CCOCC1 | 8.62 | 46.2
O=C(Cc1ccc(/C=C/CN2Cc3cc4ccccc4nc3C2=O)cc1)N1CCCC1 | 57.2 | –
O=C(Cc1ccc(/C=C/CN2Cc3cc4ccccc4nc3C2=O)cc1)N1CCCCC1 | 38.3 | 67.8
CC(C)N(C(=O)Cc1ccc(/C=C/CN2Cc3cc4ccccc4nc3C2=O)cc1)C(C)C | 43.2 | 70.1
O=C(Cc1ccc(/C=C/CN2Cc3cc4ccccc4nc3C2=O)cc1)NCCO | 42.1 | –
O=C(Cc1ccc(CCCN2Cc3cc4ccccc4nc3C2=O)cc1)N1CCN(c2ccccc2)CC1 | 42 | 65.4
COc1ccc(N2CCN(C(=O)Cc3ccc(CCCN4Cc5cc6ccccc6nc5C4=O)cc3)CC2)cc1 | 48.9 | 68.8
O=C(Cc1ccc(CCCN2Cc3cc4ccccc4nc3C2=O)cc1)N1CCN(c2ccc([N+](=O)[O-])cc2)CC1 | 40.2 | –
COc1cccc2c1C(=O)c1c(O)c3c(c(O)c1C2=O)C[C@@](O)(C(=O)CO)C[C@@H]3O[C@H]1C[C@H](N)[C@H](O)[C@H](C)O1 [DOXORUBICIN] | – | 24.3
O=c1c2ccccc2nc2n1Cc1cc3ccccc3nc1-2 [LUOTONIN A] | 61.1 | 61.2

From ChEMBL document CHEMBL3046964, “Synthesis of novel building blocks of 1H-pyrrolo[3,4-b]quinolin-3(2H)-one and evaluation of their antitumor activity” (Med Chem Res, 2013)
